Legend:
Type in all cases: in vivo
[1] = test system: LDLr knockout mice; test: Liver function marker ALAT in pooled plasma (Examples 1 and 2)
Experimental: (§1) Blood samples were takes in week 0, 3, 6, 9, 15 and 21 after 5 hours of fasting. Blood glucose was measured using hand-held glucometer immediately. Plasma cholesterol and plasma triglyceride levels were assayed immediately in fresh EDTA-plasma. The remainder of the plasma was stored at −80° C. for analysis of insulin and ALAT, and for possible other additional follow-up analysis. Faecal samples were collected over a 48 hour period at cage level in week 0, 9, and 21. Additionally, individual faecal samples were collected in week 21 to allow individual faecal analysis. Total body fat and lean body mass were assessed non-invasively by EchoMR1 in week 0, 9, 15, and 21. Mice were placed in a constraint tube which was then inserted into the EchoMR1 for a period of approximately 30 seconds. During that time, total body fat and lean body mass were calculated and recorded and the mouse was removed from the apparatus.
ALAT levels were measured at baseline, week 9 and week 21 in pooled plasma. Baseline levels were low (11 U/L). Upon HFD feeding, ALAT levels increased to 58 U/L in week 9 and further increased to 187 U/L in week 21 in the HFD group. For comparison, ALAT levels in chow fed mice reached levels of approximately 52 U/L in week 21 (data from other study). […] Also ALAT level in LGG treated mice were lower compared to HFD (66 U/L in week 9 and 124 U/L in week 21). […]

[2] = test system: LDLr knockout mice; test: Body composition analysis by EchoMRI (Examples 1 and 2); conditions: absolute values
Experimental: as §1
(§2) Example 2 describes the experimental procedures for evaluating metabolic, and cardiovascular risk factors in LDLr knockout mice fed a HFD supplemented with a >500 Da peptide fraction of the Peptide component. The same experimental procedures and methodologies as employed in Example 1 were used in Example 2.

[3] = test system: LDLr knockout mice; test: Fasting blood glucose, plasma insulin and HOMA-IR (Examples 1 and 2)
Experimental: (§3) At t=0 mice were matched into experimental groups based on blood glucose (primary matching parameter) and body weight (secondary matching parameter). The control group received a lard based high fat diet (HFD 45 kcal % from lard; diet D12451 Research Diets, New Brunswick, USA) containing 23.7% w/w protein, 41.4% w/w carbohydrates and 23.6% w/w fat.
as §1, with “Additionally, individual faecal samples were collected in week 21 to allow individual faecal analysis.” left out, “Mice were placed in a constraint tube which was then inserted into the EchoMR1 for a period of approximately 30 seconds.” left out
Blood glucose was measured immediately using a hand-held glucometer. Total plasma cholesterol and triglyceride levels were measured using kits No. 11489437 and 11488872 (Roche Diagnostics, Almere, The Netherlands), respectively. The plasma levels of insulin (Ultrasensitive mouse insulin ELISA, Merdocia, Uppsala, Sweden) were determined by ELISA. […]

[4] = test system: LDLr knockout mice; test: Body weight and food intake in LDLr knockout mice on high fat diet, 21 weeks (Examples 1 and 2, Study 2)
Source text: Both the high fat diet and the tested diets with the peptide component, LCPUFA, and LGG were isocaloric. A control diet (low fat, 10% kcal by fat) served as a reference group. The first study, indicated as Study 1 in Table 3 below, compared the mice on the high fat diet, to mice on a high fat diet supplemented with a combination of the peptide component, LCPUFA, and LGG. Whereas, the second study, indicated as Study 2 in Table 3 below, examined the effects on the mice of the individual ingredients.
Example 1 describes the experimental procedures for evaluating metabolic, and cardiovascular risk factors in LDLr knockout mice fed and HFD and supplemented with a peptide component, LCPUFA, and LGG.
The mice used were LDLr knockout mice, which phenotypically express the main risk factors that are characteristic for metabolic syndrome and that are hallmarks of human disease. Experiments were performed to conform to the rules and regulations set forward by the Netherlands Law on Animal Experiments and were approved by a Committee on Animal Experiments (DEC; approval number 3486).
Sixty-seven male LDLr−/− mice (11-18 weeks of age at the start of the experiment) obtained from the breeding facility at TNO were used. […]

[5] = test system: LDLr knockout mice; test: Tissue weights at sacrifice, week 21 (Examples 1 and 2); conditions: sacrifice after 21 weeks
Experimental: The mice were sacrificed (un-fasted) in week 21. After sacrifice, the following samples were isolated: • Serum Sample by heart puncture • Heart including aortic root (for atherosclerosis analysis) • Aortic arch (thoracic) in −80° C. • Total liver weight, 2 pieces of sinister and caudate lobe in −80° C., medial lobe formalin • Adipose tissue • Sub cutaneous (inguinal): weight, right in −80° C., left in formalin • Epididymal: weight, right in −80° C., left in formalin • Visceral (omental): weight, part in −80° C., part in formalin • Brown adipose tissue weight part in −80° C., part in formalin • Pancreas in −80° C. • Spleen (in formalin) • Kidneys (right in −80° C., left in formalin) • Ileum (last 8 cm before caecum) in −80° C. • Colon (including faeces) in −80° C. • Eyes: left in Davidson formalin, right in −80° C. • Brain (right in −80° C., left in 4% paraformaldehyde
After 21 weeks of dietary treatment, the mice were sacrificed. Tissues were isolated and weighed.
as §2

[6] = test system: LDLr knockout mice; test: Fasting plasma cholesterol and triglycerides (Examples 1 and 2)
Experimental: as §3, §1
Blood glucose was measured immediately using a hand-held glucometer. Total plasma cholesterol and triglyceride levels were measured using kits No. 11489437 and 11488872 (Roche Diagnostics, Almere, The Netherlands), respectively. The plasma levels of insulin (Ultrasensitive mouse insulin ELISA, Merdocia, Uppsala, Sweden) were determined by ELISA.
as §2

In the case of Lactobacillus rhamnosus GG [LGG], the ALAT ([1]; week 9, pooled plasma) is reported as 66 U/L, the ALAT ([1]; week 21, pooled plasma) is reported as 124 U/L and the “Total body fat compared to HFD” value [2] is reported as “No effects on total body fat”. The “Fasting blood glucose, difference to HFD control” value ([3]; t=9 weeks, temporary drop in HFD control absent in these groups) was “significant differences”, the “Fasting plasma insulin compared to HFD control” value ([3]; week 21 (NHLL, Peptide component), time not stated for LCPUFA, LGG) was “comparable to the HFD control group” and the “Body weight compared to HFD” value ([4]; after 21 weeks) was “slightly, but not significantly lower compared to HFD”. The Body weight ([4]; after 21 weeks of HFD feeding) was 45.8 ± 5.3 g, the “Liver weight compared to HFD” value [5] was “tended to be lower compared to the HFD” and the “Adipose tissue weights compared to HFD” value ([5]; three depots) was “comparable to HFD”. For the same substance, the “Plasma triglycerides compared to HFD control” value ([6]; NHLL week 9 until week 21, Peptide component all time points) was “slightly, but not significantly lower compared with HFD control”, the “Plasma cholesterol compared to other groups” value ([6]; throughout the study) was “no significant effects on plasma cholesterol” and the Plasma triglycerides ([6]; week 21) was 2.0 ± 1.0 mM.

— patent publication US10933114B2, “Nutritional supplements containing a peptide component and uses thereof” (Mead Johnson Nutrition Company, priority 2014, dated 2021)
